Data as given in publication PMC7057948, “A genome-wide approach for identification and characterisation of metabolite-inducible systems” (Nature Communications, 2020).
Counter-ions that a name gives are not always drawn. Blank lines part the entries; values can stand above or below the molecule they belong to.

Tests used:
[1] = tested on: T1, TtdR; test: RFP reporter dose-response in C. necator H16, Hill fit; type: cell-based, Cupriavidus necator; settings: inducer concentration for half-maximal activation; extracellular inducer, minimal medium, 30 °C, 80 min; whole cells with chromosomal regulator copy; read-out: Km^b
T1 construct: native full-length gene, divergent to operon starting at H16_RS10665; reporter plasmid pEH083 (plasmid assigned by list order)

[2] = tested on: BenM; test: cells; design: species or system Cupriavidus necator H16; RFP reporter induction by transcription factor biosensor, fluorescence normalised to cell density, relative to primary effector; settings: 6 h; relative to primary effector, C. necator, MM; read-out: % activation
Description: (§1) To screen the 441 combinations of inducer and biosensor for cross-reactivity, we employed an automated platform (see Methods section). Strains of C. necator harbouring the inducible systems were grown in MM and transferred to a 96-well microtiter plate format. After the inducers had been extracellularly added, cells were cultured for 6 h before RFP fluorescence and cell density were measured. […] The remaining six inducible systems were activated by one or more metabolites other than their cognate inducers. This cross-reactivity may be the result of either structural resemblance, a metabolic relationship or a combination thereof. For example, L-phenylalanine is converted into L-tyrosine by the phenylalanine 4-monooxygenase PhhA (H16_RS18365). Therefore, activation of the L-tyrosine-inducible system by L-phenylalanine is more likely to be due to biological conversion of the added compound into the primary effector rather than direct interaction of L-phenylalanine with HpdA. However, since the difference between the two molecules lies in a singly hydroxyl-group, an induction by structural resemblance cannot be entirely ruled out. The same applies to phenylglyoxylate that activated the benzoate-inducible system. Phenylglyoxylate is converted by C. necator into benzoate via a two-step reaction with benzaldehyde as intermediate compound. During the first reaction, carbon dioxide is generated that may also explain induction of the formate-inducible system by the structurally dissimilar phenylglyoxylate. Since carbon dioxide can subsequently be converted into formate, it is rational to postulate that the FdsR/PH16_RS03165-inducible system is activated in this case by its primary inducer. In addition to phenylglyoxylate, the benzoate-inducible system was activated by extracellular supplementation with cyclohexanecarboxylate and cumate. Cyclohexanecarboxylate shares both a structural resemblance to benzoate and downstream  Fig. 6 Orthogonality of inducible systems. a Cross-reactivity of a set of 21 inducible systems and their corresponding primary inducers. The heat map illustrates induction of reporter gene expression in the presence of the metabolite (in %) relative to the induction mediated by the corresponding primary effector. Measurements were taken 6 h after supplementation with inducer at a final concentration of 5 mM. Data are mean, n = 4. Source data are provided as a Source Data file. b Fluorescence output of individual cells of C. necator carrying pEH263 measured by flow cytometry. The vector pEH263 contains the 3,4-dihydroxybenzoate- and [compound left out]-inducible systems controlling expression of rfp and egfp, respectively. Fluorescence was determined in the absence of inducer (orange), in the presence of 3,4-dihydroxybenzoate (blue), [compound left out] (green), and both 3,4-dihydroxybenzoate and [compound left out] (purple). Effector concentrations correspond to their respective Km’s and fluorescence was measured 2 h after inducer addition.

[3] = tested on: FdsR; test: cells; design: species or system Cupriavidus necator H16; RFP reporter induction by transcription factor biosensor, fluorescence normalised to cell density, relative to primary effector; settings: 6 h; relative to primary effector, C. necator, MM; read-out: % activation
Description: as §1

[4] = tested on: T2, PhgR; test: RFP reporter dose-response in C. necator H16, Hill fit; type: cell-based, Cupriavidus necator; settings: inducer concentration for half-maximal activation; extracellular inducer, minimal medium, 30 °C, 80 min; whole cells with chromosomal regulator copy; read-out: Km^b
T2 construct: native full-length gene, divergent to operon starting at H16_RS05530; reporter plasmid pEH155 (plasmid assigned by list order)

[5] = molecular target: T3, FdsR (Cupriavidus necator, UniProt Q0KDY4); test: cell-based; design: RFP reporter induction by transcription factor biosensor, single time-point fluorescence in LB, relative to primary effector; settings: Escherichia coli TOP10; relative to primary effector, E. coli, LB; read-out: % activation
T3 construct: native full-length gene, divergent to operon starting at H16_RS03165; reporter plasmid pEH134 (plasmid assigned by list order)
T3 sequence (Q0KDY4 1-364): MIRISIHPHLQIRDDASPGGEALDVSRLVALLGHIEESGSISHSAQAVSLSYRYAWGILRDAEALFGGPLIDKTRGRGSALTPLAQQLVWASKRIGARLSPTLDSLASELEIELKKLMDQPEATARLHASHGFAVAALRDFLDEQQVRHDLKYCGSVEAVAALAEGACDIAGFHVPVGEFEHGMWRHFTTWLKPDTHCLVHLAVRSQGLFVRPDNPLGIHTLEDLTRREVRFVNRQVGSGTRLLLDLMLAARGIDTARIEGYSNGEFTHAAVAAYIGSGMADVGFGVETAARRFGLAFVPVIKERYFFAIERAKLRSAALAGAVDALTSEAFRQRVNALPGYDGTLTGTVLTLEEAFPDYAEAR
From the text: (§2) TRs often recognise molecules that are structurally similar to their primary effectors. For example, isopropyl β-D-1-thiogalactopyranoside is a commonly used structural analogue of allolactose, employed to control the expression of genes regulated by LacI. Here, the TR’s specificity was investigated to identify previously uncharacterised ligand–TR interactions and consequently extend the biosensor application to the detection of structurally similar or metabolically related compounds. To do so, the library of 21 native and heterologous inducible systems was screened against 46 compounds using an integrated robotic platform, as described in the previous section. […] Similarly to the former orthogonality screen (Fig. 6a), it should be noted that activation of reporter gene expression by the extracellularly added compounds likely indicates a structural resemblance to the primary ligand, a metabolic relationship or a combination thereof. To shed light on their cause of system activation, cultures of E. coli carrying the functional formate-, [compound left out]-, benzoate-, 3,4-dihydroxybenzoate-, acetoin- and β-alanine-inducible systems, active in this host organism, were evaluated for the same cross-reactivity (Supplementary Table 5).  Fig. 3 C. necator native systems mediate controllable gene expression in E. coli and P. putida. Single time-point fluorescence measurements of a, b E. coli and c, d P. putida carrying the C. necator-inducible gene expression systems composed of TR and promoter a, c or ‘promoter only’ version b, d. The plasmids harbouring the individual system– or promoter–reporter gene constructs are indicated. RFP fluorescence output was determined in the absence of inducer (light purple and light blue) and 6 h after extracellular supplementation with the corresponding primary effector to a final concentration of 5 mM (dark purple and dark blue). Data are mean ± SD, n = 3, *p < 0.05, **p < 0.01, ***p ≤ 0.001, ****p ≤ 0.0001, unpaired two-tailed t-test. Source data are provided as a Source Data file. All strains used in this study are listed in Supplementary Table 7. E. coli TOP10 (Life Technologies) was used for cloning and plasmid propagation. For single time-point fluorescence measurements and flow cytometric analyses, bacterial strains were propagated in Luria-Bertani (LB) medium. To determine the dose–responses and to evaluate inducer TR cross-reactivity, C. necator was cultivated in MM containing 1 g/L NH4Cl, 9 g/L Na2HPO4·12H2O, 1.5 g/L KH2PO4, 0.2 g/L MgSO4·7H2O, 0.02 g/L CaCl2·2H2O and 0.0012 g/L (NH4)5[Fe(C6H4O7)2] with 1 mL/L trace element solution SL7 (1.3 mL/L 25% (w/v) HCl, 0.07 g/L ZnCl2, 0.1 g/L MnCl2·4H2O, 0.062 g/L H3BO3, 0.190 g/L CoCl2·6H2O, 0.017 g/L CuCl2·2H2O, 0.024 g/L NiCl2·6H2O and 0.036 g/L Na2MoO4·2H2O) supplemented with 0.4% (w/v) sodium gluconate. If required, antibiotics were added to the growth medium at the following concentrations: 12.5 µg/mL tetracycline or 25 µg/mL chloramphenicol for E. coli, 50 µg/mL chloramphenicol for C. necator and 25 µg/mL tetracycline for P. putida. For solid media preparation, 15 g/L agar was added.

[6] = molecular target: T4, BenM (Cupriavidus necator, UniProt Q0KAA5); test: cell-based; design: RFP reporter induction by transcription factor biosensor, single time-point fluorescence in LB, relative to primary effector; settings: Escherichia coli TOP10; relative to primary effector, E. coli, LB; read-out: % activation
T4 construct: native full-length gene, divergent to operon starting at H16_RS09790; reporter plasmid pEH148 (plasmid assigned by list order)
T4 sequence (Q0KAA5 1-305): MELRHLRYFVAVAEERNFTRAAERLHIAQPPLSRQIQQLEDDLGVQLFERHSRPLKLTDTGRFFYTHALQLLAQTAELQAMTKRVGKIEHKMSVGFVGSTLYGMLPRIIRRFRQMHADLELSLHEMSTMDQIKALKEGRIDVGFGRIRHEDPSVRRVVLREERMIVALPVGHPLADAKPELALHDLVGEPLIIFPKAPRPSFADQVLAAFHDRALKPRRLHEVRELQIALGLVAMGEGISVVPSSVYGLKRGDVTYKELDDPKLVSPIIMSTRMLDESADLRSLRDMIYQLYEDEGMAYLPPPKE
From the text: as §2

[7] = molecular target: T4, BenM; test: RFP reporter dose-response in C. necator H16, Hill fit; type: cell-based; settings: read-out: Km^b
[8] = molecular target: T5, NahR (Cupriavidus necator, UniProt G0EUZ9); test: as above; type: cell-based; settings: read-out: Km^b
T5 construct: native full-length gene, divergent to operon starting at H16_RS08125; reporter plasmid pEH042 (plasmid assigned by list order); not the P. putida NahR
T5 sequence (G0EUZ9 1-300): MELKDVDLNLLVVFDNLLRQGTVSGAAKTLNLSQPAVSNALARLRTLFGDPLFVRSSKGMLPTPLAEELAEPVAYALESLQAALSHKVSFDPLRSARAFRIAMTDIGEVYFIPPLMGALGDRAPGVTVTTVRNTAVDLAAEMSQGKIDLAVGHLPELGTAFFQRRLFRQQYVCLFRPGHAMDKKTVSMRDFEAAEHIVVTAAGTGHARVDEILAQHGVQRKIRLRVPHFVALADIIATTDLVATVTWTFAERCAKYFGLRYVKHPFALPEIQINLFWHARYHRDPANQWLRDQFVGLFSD
From the text: RFP reporter dose-response in C. necator H16, Hill fit on NahR

EC50 [1]: 61500 ± 22900 µM
Compound: O=C(O)C(O)C(O)C(=O)O (centres unmarked) [compound 7, Tartrate]

EC50 [4]: 595 ± 133 µM
activity at 5000 µM [5]: 0%
activity at 5000 µM [6]: 0.19%
Compound: O=C(O)C(=O)c1ccccc1 [compound 4, Phenylglyoxylate]
activity at 5000 µM [2]: 17%
activity at 5000 µM [3]: 52%

EC50 [7]: 12.6 ± 0.8 µM
Compound: O=C(O)c1ccccc1 [compound 6, Benzoate]

Compound: O=C(O)c1ccccc1O [compound 5, Salicylate]
EC50 [8]: 2.12 ± 0.49 µM
